Data as given in US8415342B2, “Besifloxacin ophthalmic composition for the treatment or control of infection” (Bausch & Lomb Incorporated, priority 2008, dated 2013).
Converted amounts (≈) assume the structure as drawn. Like-named read-outs stand apart in the source and are kept apart here.

Columns and labels:
Type in all cases: cell-based
[1] = system: H. influenzae; experiment: MIC of clinical trial isolates, Studies 373, 433, 434; conditions: Haemophilus influenzae, all phenotypes, N 344
Protocol: (§1) PFGE testing was performed per standard procedures.
(§2) The antibacterial susceptibility profile of each Visit 1 bacterial isolate was determined for besifloxacin and other antimicrobials.

[2] = system: S. pneumoniae; experiment: as above; conditions: Streptococcus pneumoniae, all phenotypes, N 302
Protocol: as §1, §2

[3] = system: S. mitis group; experiment: as above; conditions: Streptococcus mitis group, N 45
Protocol: as §1, §2

[4] = system: Streptococcus oralis; experiment: as above; conditions: N 18
Protocol: as §1, §2

[5] = system: CDC coryneform group G; experiment: as above; conditions: N 29
Protocol: as §1, §2

[6] = system: Corynebacterium pseudodiphtheriticum; experiment: as above; conditions: N 8
[7] = system: Corynebacterium striatum; experiment: as above; conditions: N 8
[8] = system: Streptococcus salivarius; experiment: as above; conditions: N 9
[9] = system: baseline pathogens of bacterial conjunctivitis patients; experiment: MIC of baseline clinical trial isolates, Studies 373, 433, 434 (all species)
[10] = system: Streptococcus mitis; experiment: MIC of clinical trial isolates, Studies 373, 433, 434; conditions: Streptococcus mitis (listed separately from S. mitis group), N 20
Protocol: PFGE testing was performed per standard procedures. […] Analysis Populations

[11] = system: Staphylococcus hominis; experiment: as above; conditions: N 9
[12] = system: S. aureus; experiment: as above; conditions: Staphylococcus aureus
[13] = system: Staphylococcus lugdunensis; experiment: as above; conditions: N 8
[14] = system: S. epidermidis; experiment: as above; conditions: Staphylococcus epidermidis
[15] = system: S. pneumoniae topoisomerase mutants; experiment: MIC against defined topoisomerase mutants; conditions: Streptococcus pneumoniae
[16] = system: E. coli topoisomerase mutants; experiment: MIC against defined topoisomerase mutants; conditions: Escherichia coli
Protocol: Furthermore, an experiment was conducted to assess the mechanism of action of besifloxacin in S. pneumoniae, S. aureus, and E. coli via step selections for isolates with decreased susceptibility to besifloxacin, as well as by testing for altered susceptibilities of ciprofloxacin-resistant variants of all three species containing genetically defined mutations in the quinolone resistance determining regions (QRDRs) of structural genes encoding DNA gyrase and topoisomerase IV (Table 2).

[17] = system: Viridans streptococci; experiment: MIC, CLSI broth microdilution, clinical isolates; conditions: Viridans streptococci (N = 156)
[18] = system: Staphylococcus hominis; experiment: MIC, CLSI broth microdilution, clinical isolates; conditions: Staphylococcus hominis (N = 50)
[19] = system: S. aureus; experiment: MIC and MBC:MIC ratio, recent ocular isolates; conditions: Staphylococcus aureus; S. aureus (N = 30), recent ocular isolates
[20] = system: Staphylococcus warneri; experiment: MIC, CLSI broth microdilution, clinical isolates; conditions: Staphylococcus warneri (N = 50)
[21] = system: S. aureus topoisomerase mutants; experiment: MIC against defined topoisomerase mutants; conditions: Staphylococcus aureus
[22] = system: Staphylococcus haemolyticus; experiment: MIC, CLSI broth microdilution, clinical isolates; conditions: Staphylococcus haemolyticus (N = 101)
[23] = system: Lancefield group C, F, G streptococci; experiment: MIC, CLSI broth microdilution, clinical isolates; conditions: G streptococci (N = 50)
[24] = system: Morganella morganii; experiment: MIC, CLSI broth microdilution, clinical isolates; conditions: Morganella morganii (N = 51)
[25] = system: Moraxella catarrhalis; experiment: MIC, CLSI broth microdilution, clinical isolates; conditions: Moraxella catarrhalis (N = 101)
[26] = system: S. pneumoniae; experiment: MIC and MBC:MIC ratio, recent ocular isolates; conditions: S. pneumoniae (N = 35), recent ocular isolates
[27] = system: Klebsiella oxytoca; experiment: MIC, CLSI broth microdilution, clinical isolates; conditions: Klebsiella oxytoca (N = 50)
[28] = system: Legionella pneumophila; experiment: microbe, parasite or virus in culture; conditions: Legionella pneumophila
[29] = system: H. influenzae; experiment: MIC and MBC:MIC ratio, recent ocular isolates; conditions: H. influenzae (N = 40), recent ocular isolates
From the text: (§3) The success of in vivo antimicrobial action depends to a large extent on the host's defense mechanisms, which ultimately sequester and kill the microorganisms that have been reduced by the bacteriostatic/bactericidal action of the antibacterial agent. Thus, it is also of interest to profile the bactericidal activity of antimicrobial agents. The assessment of in vitro bactericidal activity can be accomplished in multiple ways, for example, the time-kill method or the determination of the minimum bactericidal concentration (MBC). […] Bactericidal agents are characterized by low MBC:MIC ratios.

[30] = system: S. epidermidis; experiment: MIC and MBC:MIC ratio, recent ocular isolates; conditions: Staphylococcus epidermidis; S. epidermidis (N = 15), recent ocular isolates
From the text: as §3

[31] = system: Citrobacter koseri; experiment: MIC, CLSI broth microdilution, clinical isolates; conditions: Citrobacter koseri (N = 100)

Q: Which MIC50 [1] does the source give for `CC1COc2c(N3CCN(C)CC3)c(F)cc3c(=O)c(C(=O)O)cn1c23` (centres unmarked) [OFLOX] here?
A: Its MIC50 is 0.03 µg/mL.

Q: And the MIC90 [1]?
A: The MIC90 was 0.06 µg/mL.

Q: And the MIC50 [2]?
A: Its MIC50 is 1 µg/mL.

Q: What about the MIC90 [2] of the same compound?
A: Its MIC90 is 2 µg/mL.

Q: What about the MIC50 [3] of the same compound?
A: The MIC50 was 2 µg/mL.

Q: What about the MIC90 [3] of the same compound?
A: The MIC90 was 4 µg/mL.

Q: What about the “MIC Range” value [3] of the same compound?
A: The value was 0.25 µg/mL.

Q: And the MIC50 [4]?
A: The MIC50 was 2 µg/mL.

Q: What about the MIC90 [4] of the same compound?
A: Its MIC90 is 4 µg/mL.

Q: What about the “MIC Range” value [4] of the same compound?
A: Its value is 0.125 µg/mL.

Q: What about the MIC50 [5] of the same compound?
A: Its MIC50 is 0.125 µg/mL.

Q: And the MIC90 [5]?
A: Its MIC90 is 2 µg/mL.

Q: What about the MIC50 [6] of the same compound?
A: The MIC50 was 1 µg/mL.

Q: And the “MIC Range” value [6]?
A: The value was 0.125 to 2 µg/mL.

Q: And the MIC50 [7]?
A: The MIC50 was 0.125 µg/mL.

Q: What about the MIC50 [8] of the same compound?
A: Its MIC50 is 2 µg/mL.

Q: And the “MIC Range” value [8]?
A: The value was 2 to 4 µg/mL.

Q: And the MIC50 ([9]; All organisms, N 1324)?
A: Its MIC50 is 0.5 µg/mL.

Q: And the MIC90 ([9]; All organisms, N 1324)?
A: The MIC90 was 2 µg/mL.

Q: What about the MIC50 ([9]; Gram-negative, N 438) of the same compound?
A: The MIC50 was 0.03 µg/mL.

Q: And the MIC90 ([9]; Gram-negative, N 438)?
A: The MIC90 was 0.25 µg/mL.

Q: And the MIC50 ([9]; Gram-positive, N 886)?
A: Its MIC50 is 1 µg/mL.

Q: What about the MIC90 ([9]; Gram-positive, N 886) of the same compound?
A: The MIC90 was 4 µg/mL.

Q: What about the MIC50 [10] of the same compound?
A: The MIC50 was 2 µg/mL.

Q: And the MIC90 [10]?
A: Its MIC90 is 2 µg/mL.

Q: What about the “MIC Range” value [10] of the same compound?
A: The value was 1 to 4 µg/mL.

Q: And the MIC50 [11]?
A: Its MIC50 is 0.25 µg/mL.

Q: What about the “MIC Range” value [11] of the same compound?
A: The value was 0.25 µg/mL.

Q: What about the MIC50 ([12]; all phenotypes, N 190) of the same compound?
A: Its MIC50 is 0.5 µg/mL.

Q: And the MIC90 ([12]; all phenotypes, N 190)?
A: Its MIC90 is >8 µg/mL.

Q: What about the MIC50 [13] of the same compound?
A: The MIC50 was 1 µg/mL.

Q: And the MIC50 ([14]; all phenotypes, N 111)?
A: The MIC50 was 0.5 µg/mL.

Q: And the MIC90 ([14]; all phenotypes, N 111)?
A: Its MIC90 is >8 µg/mL.

Q: And the “MIC Range” value ([14]; all phenotypes, N 111)?
A: Its value is 0.25 µg/mL.

Q: Which results are given for `COc1c(N2C[C@@H]3CCCN[C@@H]3C2)c(F)cc2c(=O)c(C(=O)O)cn(C3CC3)c12` [Moxifloxacin]?
A: MIC ([15]; S. pneumoniae Wild type): 0.25 µg/mL (≈ 0.623 µM); MIC ([15]; S. pneumoniae gyrA S81F): 0.5 µg/mL (≈ 1.25 µM); MIC ([15]; S. pneumoniae parC S79Y): 0.25 µg/mL (≈ 0.623 µM); MIC ([15]; S. pneumoniae parC S79Y + gyrA S81F): 4 µg/mL; MIC ([16]; E. coli Wild type): 0.06 µg/mL (≈ 0.149 µM); MIC ([16]; E. coli gyrA D87Y (or S83L)): 0.5 µg/mL (≈ 1.25 µM); MIC ([16]; E. coli gyrA S83L + parC S80R): 4 µg/mL; MIC ([16]; E. coli gyrA S83L + parE H445L): 0.5 µg/mL; MIC ([16]; E. coli gyrB D426N): 0.12 µg/mL (≈ 0.299 µM); MIC Range [17]: 0.03 to 4 µg/mL; MIC50 ([17]; read-out: MIC50): 0.12 µg/mL (≈ 0.299 µM); MIC50 [18]: 1 µg/mL (≈ 2.49 µM); MIC90 [18]: 4 µg/mL (≈ 9.96 µM); MIC50 [19]: 0.06 µg/mL; MIC50 [20]: 0.06 µg/mL (≈ 0.149 µM); MIC90 [20]: 4 µg/mL (≈ 9.96 µM); MIC ([21]; S. aureus Wild type): 0.06 µg/mL (≈ 0.149 µM); MIC ([21]; S. aureus parC S80F (or E84K)): 0.5 µg/mL (≈ 1.25 µM); MIC ([21]; S. aureus parC S80F + gyrA S84L): 2 µg/mL; MIC50 [22]: 1 µg/mL (≈ 2.49 µM); MIC90 [22]: 8 µg/mL (≈ 19.9 µM); MIC Range [23]: 0.03 to 1 µg/mL; MIC50 ([23]; read-out: MIC50): 0.12 µg/mL (≈ 0.299 µM); MIC90 ([23]; read-out: MIC90): 0.12 µg/mL (≈ 0.299 µM); MIC90 [24]: > 8 µg/mL; MIC90 ([9]; clinical isolates from Asia): 2 µg/mL; MIC50 [25]: 0.03 µg/mL (≈ 0.0747 µM); MIC90 [25]: 0.03 µg/mL (≈ 0.0747 µM); MIC Range [25]: 0.015 to 0.12 µg/mL; MIC Range [26]: 0.03 to 2 µg/mL; MIC50 ([26]; Streptococcus pneumoniae): 0.06 µg/mL; MIC90 ([26]; Streptococcus pneumoniae): 0.12 µg/mL; MIC50 [27]: 0.06 µg/mL (≈ 0.149 µM); MIC90 [27]: 2 µg/mL (≈ 4.98 µM); MIC Range [27]: 0.03 to 8 µg/mL; MIC90 ([12]; MRSA, S. aureus MRSA-CS, N 9, read-out: MIC90 (due to limited isolates, highest MIC value is given)): 0.06 µg/mL; MIC50 [28]: 0.03 µg/mL (≈ 0.0747 µM); MIC90 [28]: 0.06 µg/mL (≈ 0.149 µM); MIC Range [29]: 8 to 30 ng/mL; MIC50 ([29]; Haemophilus influenzae): 0.015 µg/mL; MIC90 ([29]; Haemophilus influenzae): 0.03 µg/mL; MIC50 [30]: 0.06 µg/mL; MIC90 [30]: > 8 µg/mL; MIC90 ([14]; MRSE, S. epidermidis MRSE-CR, N 24, read-out: MIC90): > 8 µg/mL; MIC90 ([14]; S. epidermidis MSSE-CR, N 10, read-out: MIC90): 8 µg/mL; MIC50 [31]: 0.03 µg/mL (≈ 0.0747 µM)
